The target of data set [1] is T1, High affinity nerve growth factor receptor (Homo sapiens, UniProt P04629). As to the kind of experiment: Inhibition of TrkA (unknown origin).
Data set [2] in a line: Apparent permeability from basolateral side to apical side of MDCK cells. Particulars: dog. It counts as ADME, cell-based, Canis lupus familiaris.
Data set [3] has as its target T1, High affinity nerve growth factor receptor. As to the kind of experiment: Inhibition of TrkA (unknown origin) by cell-based assay.
The target in data set [4] is T2, BDNF/NT-3 growth factors receptor (Homo sapiens, UniProt Q16620). Put plainly: Inhibition of TrkB (unknown origin) by cell-based assay.
In data set [5] the target is T2, BDNF/NT-3 growth factors receptor. As to the kind of experiment: Inhibition of TrkB (unknown origin).
Data set [6] is described as follows: Apparent permeability from apical side to basolateral side of MDCK cells. Particulars: dog. It counts as ADME, cell-based, Canis lupus familiaris.

T2 sequence (Q16620 whole entry): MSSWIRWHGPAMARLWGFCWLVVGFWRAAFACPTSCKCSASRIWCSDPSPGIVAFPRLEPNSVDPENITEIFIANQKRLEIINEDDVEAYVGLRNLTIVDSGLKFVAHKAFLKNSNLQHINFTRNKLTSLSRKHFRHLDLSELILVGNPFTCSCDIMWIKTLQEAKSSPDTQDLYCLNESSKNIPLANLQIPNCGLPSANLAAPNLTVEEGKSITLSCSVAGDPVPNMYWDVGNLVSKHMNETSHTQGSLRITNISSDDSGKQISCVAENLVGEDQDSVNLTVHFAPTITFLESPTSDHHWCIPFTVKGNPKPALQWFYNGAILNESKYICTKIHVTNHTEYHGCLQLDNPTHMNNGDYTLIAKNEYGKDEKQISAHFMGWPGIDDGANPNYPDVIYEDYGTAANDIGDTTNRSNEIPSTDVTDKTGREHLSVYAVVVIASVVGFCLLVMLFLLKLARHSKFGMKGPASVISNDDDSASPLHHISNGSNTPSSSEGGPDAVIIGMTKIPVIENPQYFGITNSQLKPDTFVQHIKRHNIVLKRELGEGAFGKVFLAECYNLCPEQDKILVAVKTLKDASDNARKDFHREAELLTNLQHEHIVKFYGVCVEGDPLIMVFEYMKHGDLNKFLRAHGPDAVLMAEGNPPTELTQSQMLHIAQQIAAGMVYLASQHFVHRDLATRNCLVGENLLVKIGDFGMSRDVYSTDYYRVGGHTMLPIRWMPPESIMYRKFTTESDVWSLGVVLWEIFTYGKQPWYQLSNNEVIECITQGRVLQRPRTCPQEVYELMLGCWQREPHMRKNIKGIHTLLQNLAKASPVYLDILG
T1 sequence (P04629 whole entry): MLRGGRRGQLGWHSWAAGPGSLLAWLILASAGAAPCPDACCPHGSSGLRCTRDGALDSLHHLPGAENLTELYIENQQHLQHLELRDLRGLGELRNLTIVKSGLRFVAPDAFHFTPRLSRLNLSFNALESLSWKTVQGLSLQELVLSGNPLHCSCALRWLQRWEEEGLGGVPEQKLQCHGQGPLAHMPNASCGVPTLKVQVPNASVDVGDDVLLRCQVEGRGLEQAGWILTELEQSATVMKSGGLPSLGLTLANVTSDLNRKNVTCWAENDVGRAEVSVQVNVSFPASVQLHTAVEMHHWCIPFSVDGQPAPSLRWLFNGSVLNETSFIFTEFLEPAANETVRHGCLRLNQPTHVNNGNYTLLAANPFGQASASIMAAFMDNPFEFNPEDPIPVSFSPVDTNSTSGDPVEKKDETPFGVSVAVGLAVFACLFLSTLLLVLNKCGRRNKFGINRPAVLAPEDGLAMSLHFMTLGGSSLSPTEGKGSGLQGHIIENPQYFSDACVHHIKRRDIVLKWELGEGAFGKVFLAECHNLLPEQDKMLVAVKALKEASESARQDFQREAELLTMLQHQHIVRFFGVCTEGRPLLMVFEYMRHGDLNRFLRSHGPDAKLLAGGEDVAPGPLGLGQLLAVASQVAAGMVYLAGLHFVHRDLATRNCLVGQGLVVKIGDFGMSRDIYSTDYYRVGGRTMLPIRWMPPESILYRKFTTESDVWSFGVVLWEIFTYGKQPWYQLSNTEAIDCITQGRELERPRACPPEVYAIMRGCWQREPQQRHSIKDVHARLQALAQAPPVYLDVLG

Take `CC(C)[C@H](CO)Nc1nc(Nc2ccc(C(=O)O)c(Cl)c2)c2ncn(C(C)C)c2n1` [PURVALANOL B]: the IC50 (in general, the concentration at which inhibition is half-maximal) in data set [1] was determined as 51 nM; in data set [3], 1710 nM; in data set [4], 1300 nM; in data set [5] it was 11 nM. For the same compound, in data set [2], the basolateral-to-apical permeability (Papp B→A) (as a rule, the apparent permeability from the basolateral to the apical side of a cell layer) was less than 5 ×10⁻⁶ cm/s. The apparent permeability from apical to basolateral (Papp A→B) (in general, the apparent permeability from the apical to the basolateral side of a cell layer) in data set [6] worked out at 1.1 ×10⁻⁶ cm/s.
